One may read the LD50 as the dose at which mortality reaches 50%. Read a high LD50 as lower toxicity.

This data set is described as follows: Lethal dose in mice when administered orally. The settings on record: mouse, in vivo, po. The data set is classed as toxicity, organism-based.
As to `CC(C)Cc1ccc(C(C)C(=O)OCCOCCOCCOCCO)cc1` (stereo not drawn), the LD50 is > 2000 mg/kg.
Turning to `CC(C)Cc1ccc(C(C)C(=O)OCCOCCOCCOCCOCCOCCOCCOCCOCCOCCOCCOCCOCCOCCOCCOCCOCCOCCOCCOCCOCCOCCOCCOCCOCCOCCOCCOCCOCCOCCOCCOCCOCCOCCOCCOCCOCCOCCOCCOCCOCCOCCOCCOCCOCCOC(=O)C(C)c2ccc(CC(C)C)cc2)cc1` (stereo not drawn), the LD50 was > 2000 mg/kg.
For `CC(C)Cc1ccc(C(C)C(=O)OCCOCCOCCOCCOCCOCCOCCOCCOCCOCCOCCOCCOCCOCCOCCOCCOCCOCCOCCOCCOC(=O)C(C)c2ccc(CC(C)C)cc2)cc1` (stereo not drawn) the value was > 2000 mg/kg.

(Values after ChEMBL document CHEMBL1121918, “Synthesis and pharmacological evaluation of poly(oxyethylene) derivatives of 4-isobutylphenyl-2-propionic acid (ibuprofen)” (J Med Chem, 1981).)
